Source: patent US6737383B1, “Herbicidal oxadiazolidines” (priority 1999, dated 2004)

What was measured:
[1] = tested on: bedstraw; assay: Test B pre/postemergence bedstraw; type: in vivo, Galium aparine
How it was run: (§1)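 Response is a visual 0-to-10 score relative to untreated plants, where 0 means no effect and 10 means complete control, taken twelve to sixteen days after application. Treatments went onto soil at planting and onto foliage of 1- to 4-leaf plants, using a surfactant-containing non-phytotoxic solvent.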

[2] = tested on: blackgrass; assay: Test B pre/postemergence blackgrass; type: in vivo, Alopecurus myosuroides
How it was run: as §1

[3] = tested on: surinam grass; assay: Test B pre/postemergence surinam grass; type: in vivo, Brachiaria decumbens
How it was run: as §1

[4] = tested on: cocklebur; assay: Test B pre/postemergence cocklebur; type: in vivo, Xanthium strumarium
How it was run: as §1

[5] = tested on: corn; assay: Test B pre/postemergence corn; type: in vivo, Zea mays
How it was run: as §1

[6] = tested on: crabgrass; assay: Test B pre/postemergence crabgrass; type: in vivo, Digitaria sanguinalis
How it was run: as §1

[7] = tested on: giant foxtail; assay: Test B pre/postemergence giant foxtail; type: in vivo, Setaria faberii
How it was run: as §1

[8] = tested on: morningglory; assay: Test B pre/postemergence morningglory; type: in vivo, Ipomoea hederacea
How it was run: as §1

[9] = tested on: pigweed; assay: Test B pre/postemergence pigweed; type: in vivo, Amaranthus retroflexus
How it was run: as §1

[10] = tested on: rape; assay: Test B pre/postemergence rape; type: in vivo, Brassica napus
How it was run: as §1

[11] = tested on: soybean; assay: Test B pre/postemergence soybean; type: in vivo, Glycine max
How it was run: as §1

[12] = tested on: sugar beet; assay: Test B pre/postemergence sugar beet; type: in vivo, Beta vulgaris
How it was run: as §1

[13] = tested on: velvetleaf; assay: Test B pre/postemergence velvetleaf; type: in vivo, Abutilon theophrasti
How it was run: as §1

[14] = tested on: wheat; assay: Test B pre/postemergence wheat; type: in vivo, Triticum aestivum
How it was run: as §1

[15] = tested on: wild oat; assay: Test B pre/postemergence wild oat; type: in vivo, Avena fatua
How it was run: as §1

[16] = tested on: purple nutsedge; assay: Test B pre/postemergence purple nutsedge; type: in vivo, Cyperus rotundus
How it was run: as §1

[17] = Postemergence, Rate 62 g/ha, scale 0 to 10, 0 is no effect, 10 is complete control
[18] = Preemergence, Rate 125 g/ha, scale of 0 to 10 where 0 is no effect and 10 is complete control
[19] = Preemergence, Rate 250 g/ha, scale 0 (no effect) to 10 (complete control)
[20] = Rate 62 g/ha, Preemergence, scale 0 to 10
[21] = Rate 500 g/ha, Preemergence, scale 0 to 10 (0 no effect, 10 complete control)
[22] = Postemergence, Rate 125 g/ha, scale of 0 to 10 where 0 is no effect and 10 is complete control
[23] = Rate 250 g/ha, Postemergence, scale 0 to 10, 0 is no effect, 10 is complete control
[24] = Rate 500 g/ha, Postemergence, scale 0 to 10, 0 is no effect, 10 is complete control

CC(C)N(C(=O)n1oc(=O)n(C(C)C2=NOCC2)c1=O)c1ccc(Cl)cc1 (racemic) [Compound 759]
Plant response rating, Bedstraw [1, 17]: 0 | Plant response rating, Bedstraw [1, 18]: 0 | Bedstraw plant response rating [1, 19]: 0 | Bedstraw plant response rating [1, 20]: 0 | Bedstraw plant response rating [1, 21]: 0 | Plant response rating, Blackgrass [2, 17]: 4 | Blackgrass plant response rating [2, 22]: 5 | Plant response rating, Blackgrass [2, 18]: 5 | Blackgrass plant response rating [2, 19]: 5 | Blackgrass plant response rating [2, 20]: 4 | Blackgrass plant response rating [2, 23]: 7 | Blackgrass plant response rating [2, 24]: 8 | Blackgrass plant response rating [2, 21]: 8 | Plant response rating, B. signalgrass [3, 17]: 0 | B. signalgrass plant response rating [3, 22]: 3 | B. signalgrass plant response rating ([3]; Preemergence, Rate 62 g/ha, scale of 0 to 10 where 0 is no effect and 10 is complete control): 3 | Plant response rating, B. signalgrass [3, 18]: 3 | B. signalgrass plant response rating [3, 19]: 8 | B. signalgrass plant response rating [3, 23]: 6 | B. signalgrass plant response rating [3, 24]: 7 | B. signalgrass plant response rating [3, 21]: 8 | Plant response rating, Cocklebur [4, 17]: 0 | Cocklebur plant response rating [4, 22]: 0 | Plant response rating, Cocklebur [4, 18]: 0 | Cocklebur plant response rating [4, 19]: 0 | Cocklebur plant response rating [4, 20]: 0 | Cocklebur plant response rating [4, 23]: 1 | Cocklebur plant response rating [4, 24]: 2 | Cocklebur plant response rating [4, 21]: 0 | Plant response rating, Corn [5, 17]: 0 | Corn plant response rating [5, 22]: 0 | Plant response rating, Corn [5, 18]: 0 | Corn plant response rating [5, 19]: 0 | Corn plant response rating [5, 20]: 0 | Corn plant response rating [5, 23]: 0 | Corn plant response rating [5, 24]: 0 | Corn plant response rating [5, 21]: 0 | Plant response rating, Crabgrass [6, 17]: 2 | Crabgrass plant response rating [6, 22]: 4 | Plant response rating, Crabgrass [6, 18]: 7 | Crabgrass plant response rating [6, 19]: 8 | Crabgrass plant response rating [6, 20]: 7 | Crabgrass plant response rating [6, 23]: 8 | Crabgrass plant response rating [6, 24]: 8 | Crabgrass plant response rating [6, 21]: 9 | Plant response rating, Giant foxtail [7, 17]: 3 | Giant foxtail plant response rating [7, 22]: 5 | Plant response rating, Giant foxtail [7, 18]: 9 | Giant foxtail plant response rating [7, 19]: 10 | Giant foxtail plant response rating [7, 20]: 9 | Giant foxtail plant response rating [7, 23]: 8 | Giant foxtail plant response rating [7, 24]: 8 | Giant foxtail plant response rating [7, 21]: 10 | Plant response rating, Morningglory [8, 17]: 3 | Morningglory plant response rating [8, 22]: 3 | Plant response rating, Morningglory [8, 18]: 0 | Morningglory plant response rating [8, 19]: 0 | Morningglory plant response rating [8, 20]: 0 | Morningglory plant response rating [8, 23]: 3 | Morningglory plant response rating [8, 24]: 4 | Morningglory plant response rating [8, 21]: 0 | Plant response rating, Redroot pigweed [9, 17]: 0 | Redroot pigweed plant response rating [9, 22]: 0 | Plant response rating, Redroot pigweed [9, 18]: 2 | Redroot pigweed plant response rating [9, 19]: 3 | Redroot pigweed plant response rating [9, 20]: 0 | Redroot pigweed plant response rating [9, 23]: 0 | Redroot pigweed plant response rating [9, 24]: 4 | Redroot pigweed plant response rating [9, 21]: 4 | Plant response rating, Rape [10, 17]: 0 | Rape plant response rating [10, 22]: 0 | Plant response rating, Rape [10, 18]: 0 | Rape plant response rating [10, 19]: 0 | Rape plant response rating [10, 20]: 0 | Rape plant response rating [10, 23]: 0 | Rape plant response rating [10, 24]: 0 | Rape plant response rating [10, 21]: 4 | Plant response rating, Soybean [11, 17]: 3 | Plant response rating, Soybean [11, 18]: 0 | Soybean plant response rating [11, 19]: 0 | Soybean plant response rating [11, 20]: 0 | Soybean plant response rating [11, 23]: 3 | Soybean plant response rating [11, 24]: 3 | Soybean plant response rating [11, 21]: 0 | Plant response rating, Sugarbeets [12, 17]: 0 | Plant response rating, Sugarbeets [12, 18]: 0 | Sugarbeets plant response rating [12, 19]: 4 | Sugarbeets plant response rating [12, 20]: 0 | Sugarbeets plant response rating [12, 23]: 0 | Sugarbeets plant response rating [12, 24]: 0 | Sugarbeets plant response rating [12, 21]: 5 | Plant response rating, Velvetleaf [13, 17]: 2 | Plant response rating, Velvetleaf [13, 18]: 0 | Velvetleaf plant response rating [13, 19]: 0 | Velvetleaf plant response rating [13, 20]: 0 | Velvetleaf plant response rating [13, 23]: 6 | Velvetleaf plant response rating [13, 24]: 6 | Velvetleaf plant response rating [13, 21]: 0 | Plant response rating, Wheat [14, 17]: 0 | Plant response rating, Wheat [14, 18]: 2 | Wheat plant response rating [14, 19]: 3 | Wheat plant response rating [14, 20]: 0 | Wheat plant response rating [14, 23]: 0 | Wheat plant response rating [14, 24]: 0 | Wheat plant response rating [14, 21]: 8 | Plant response rating, Wild oats [15, 17]: 0 | Plant response rating, Wild oats [15, 18]: 4 | Wild oats plant response rating [15, 19]: 5 | Wild oats plant response rating [15, 20]: 0 | Wild oats plant response rating [15, 23]: 2 | Wild oats plant response rating [15, 24]: 3 | Wild oats plant response rating [15, 21]: 8 | Plant response rating, Nutsedge [16, 17]: 0 | Nutsedge plant response rating [16, 22]: 0 | Plant response rating, Nutsedge [16, 18]: 0 | Nutsedge plant response rating [16, 19]: 0 | Nutsedge plant response rating [16, 20]: 0 | Nutsedge plant response rating [16, 23]: 0 | Nutsedge plant response rating [16, 24]: 0 | Nutsedge plant response rating [16, 21]: 0
